Experimental data taken from patent publication US20120245029A1, “NOVEL PHOSPH(ON)ATE- AND SULF(ON)ATE-BASED PHOSPHATE MODIFIED NUCLEOSIDES USEFUL AS SUBSTRATES FOR POLYMERASES AND AS ANTIVIRAL AGENTS” (priority 2009, published 2012).

Legend:
Format in all cases: biochemical
HIV-1 RT [1] = target: T1, HIV-1 RT (Human immunodeficiency virus type 1 group M subtype B, UniProt P04585); assay: Elongation of primer P1 directed by template T2 by HIV-1 RT; details: P1T2; for P+7 product: 60 min
T1 construct: HIV-1 Reverse Transcriptase serves, in the HIV-1 viral replication process, as catalyst; purchased Ambion
Procedure: (§1) DNA polymerase reactions: end-labeled primer was annealed to its template by combining primer and template in a molar ratio of 1:2 and heating the mixture to 70° C. for 10 minutes followed by slow cooling to room temperature over a period of 1.5 hour. For the incorporation of a modified nucleoside, a series of 20 μL-batch reactions was performed with the enzyme HIV-1 RT (Ambion, 10 U/μL stock soln, specific activity 8.095 Wring, concentration 1.2 mg/mL). The final mixture contained 125 nM primer template complex, RT buffer (250 mM Tris.HCl, 250 mM KCl, 50 mM MgCl2, 2.5 mM spermidine, 50 mM dithiothreitol (DTT); pH 8.3), 0.025 U/μL HIV-1 RT, and different concentrations of the phosphoramidate to be tested (1 mM, 500 μM, 200 μM and 100 μM).
(§2) Electrophoresis: all polymerase reaction aliquots (2.5 μL) were quenched by the addition of 10 μL of loading buffer (90% formamide, 0.05% bromophenol blue, 0.05% xylene cyanol and 50 mM ethylenediaminetetraacetic acid (EDTA)). Samples were heated at 85° C. for 5 minutes prior to analysis by electrophoresis for 2.5 hours at 2000 V on a 30 cm×40 cm×0.4 mm 20% (19:1 mono:bis) denaturing gel in the presence of a 100 mM Tris-borate, 2.5 mM EDTA buffer; pH 8.3. Products were visualized by phosphorimaging. The amount of radioactivity in the bands corresponding to the products of enzymatic reactions was determined by using the imaging device Cyclone@ and the Optiquant image analysis software (Perkin Elmer).
In order to further investigate the potentiality of the leaving groups of this invention, L-Cys-dAMP (2) and 3-phosphono-L-Ala-dAMP (3) were tested in the template dependent incorporation of more than one phosphoramidate nucleotides by HIV-1 RT (FIG. 4). For this purpose, Primer P1 and template T2 containing an overhang of seven thymidine residues and four nucleobases (GGAC) at the 3′-end were used.
In order to investigate the strand elongation capacity of compound 2, a template dependent incorporation of more than one nucleotide experiment was carried out. In this experiment HIV-1 RT and P1T2 duplex, where seven thymidine bases overhang of the template is flanked by four non-thymidine units at the 3′-end were used. A range of concentration of the building block was incubated with the primer-template complex and 0.025 U/μL of enzyme at the appropriate temperature, samples were quenched after 15, 30, 60, 90 and 120 minutes respectively and analyzed by 20% polyacrylamide gel electrophoresis.

HIV-1 RT [2] = target: T1, HIV-1 RT; assay: Gel-based single nucleotide incorporation assay by HIV-1 RT (primer-template P1T1); details: for % of P + 1 / % of P + 2: P1T1 125 nM
Procedure: as §1, §2
Here, the ability of phosphoramidate analogues as substrate for HIV-1 RT was investigated by the gel-based single nucleotide incorporation assay. The natural nucleoside triphosphate (dATP) was used as reference.
The ability of HIV-1 reverse transcriptase to incorporate phosphoramidate analogues 2-6 was analysed by gel-based single-nucleotide-incorporation assays using the primer-template complex P1T1.

HIV-1 RT [3] = target: T1, HIV-1 RT; assay: as above
Taq DNA polymerase = Taq DNA polymerase (Thermus aquaticus, UniProt P19821); assay: Single nucleotide incorporation using Taq DNA polymerase; details: P1T1
Sequence of Taq DNA polymerase (P19821 whole entry): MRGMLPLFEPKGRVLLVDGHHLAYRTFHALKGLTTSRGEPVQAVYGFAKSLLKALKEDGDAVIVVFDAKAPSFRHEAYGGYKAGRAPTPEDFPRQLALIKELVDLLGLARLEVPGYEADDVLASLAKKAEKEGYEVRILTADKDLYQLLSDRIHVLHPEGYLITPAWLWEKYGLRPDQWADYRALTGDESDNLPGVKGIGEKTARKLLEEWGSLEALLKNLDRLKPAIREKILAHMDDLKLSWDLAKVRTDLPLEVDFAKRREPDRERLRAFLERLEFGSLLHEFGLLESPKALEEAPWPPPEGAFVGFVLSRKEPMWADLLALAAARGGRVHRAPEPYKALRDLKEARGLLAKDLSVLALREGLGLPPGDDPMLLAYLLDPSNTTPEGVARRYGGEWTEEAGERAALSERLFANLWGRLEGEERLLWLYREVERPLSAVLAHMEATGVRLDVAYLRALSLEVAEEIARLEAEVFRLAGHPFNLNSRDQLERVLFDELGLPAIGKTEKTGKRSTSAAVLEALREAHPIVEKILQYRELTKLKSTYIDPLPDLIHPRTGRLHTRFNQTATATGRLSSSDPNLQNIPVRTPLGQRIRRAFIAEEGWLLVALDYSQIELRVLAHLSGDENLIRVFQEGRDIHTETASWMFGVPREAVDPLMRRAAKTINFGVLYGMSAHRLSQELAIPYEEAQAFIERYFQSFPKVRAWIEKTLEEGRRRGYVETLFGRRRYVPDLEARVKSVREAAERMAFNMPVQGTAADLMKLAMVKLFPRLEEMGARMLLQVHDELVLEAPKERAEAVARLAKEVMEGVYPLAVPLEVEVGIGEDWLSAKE
Procedure: 3-phosphono-L-Ala-dAMP (3) was tested as a substrate for Taq DNA polymerase (data in FIG. 5).

HIV-1 RT [4] = target: T1, HIV-1 RT; assay: Steady-state kinetics of single nucleotide incorporation by HIV-1 RT
Procedure: The efficiency of incorporation by HIV-1 RT of 3-phosphono-L-Ala-dAMP (3) was investigated by determination of the kinetic parameters Km and Vmax. The steady-state kinetics assay was carried out as follows. The reaction was started by adding HIV-1 RT to P1-T1 complex, buffer, 3-phosphono-L-Ala-dAMP (3) and dATP. The final mixture (20 μL) contained 0.025 U/μL HIV-1 RT, buffer, 125 nM primer-template complex, and various concentrations 3-phosphono-L-Ala-dAMP and dATP. The range of concentrations for phosphoamidates was optimized according to a Km value for the incorporation of an individual nucleotide. In the case of HIV-1 RT, reaction mixtures containing the enzyme in concentration (0.025 U/μL) to attain 5-25% conversion and appropriate substrate concentration (0.5-100 μM used for 3-phosphono-L-Ala-dAMP (3) and 0.1-10 μM used for dATP) were incubated at 37° C. and run for 8-10 different time intervals (2-20 minutes). The incorporation velocities were calculated based on the percentage of single-nucleotide extension product (P+1 band). The kinetic parameters (Vmax and Km) were determined by plotting V (nM/min) versus substrate concentration (μM) and fitting the data point to a nonlinear Michaelis-Menten regression using GraphPad Prism software.

[5] = P1T1 125 nM, HIV-1 RT 0.025 U/μL, 37° C.

In the case of `Nc1ncnc2c1ncn2[C@H]1C[C@H](O)[C@@H](COP(=O)(O)N[C@@H](CP(=O)(O)O)C(=O)O)O1` [Compound 3, 2′-deoxyadenosine-5′-(3-phosphono-L-alanine) phosphoramidate], the “primer extension products (in words)” value (HIV-1 RT [1]; 50 μM and 100 μM substrate) is reported as “only extended a primer with two and three adenine nucleobases”, the “P+7 product” value (HIV-1 RT [1]; 200 μM substrate) is reported as 7.1% and the “P+7 product” value (HIV-1 RT [1]; 500 μM substrate) is reported as 15.9%. For the same compound, the “P+7 product” value (HIV-1 RT [1]; 1 mM substrate) was 23.8%, the “incorporation activity relative to natural dATP” value (HIV-1 RT [1]) was “less active than the natural dATP” and the “misincorporation (P+8)” value (HIV-1 RT [1]) was “did not result in any misincorporation”. For the same compound, the “% of P + 1” value (HIV-1 RT [2]; 50 μM substrate, 20 min) was 89.9%, the “% of P + 1” value (HIV-1 RT [2]; 50 μM substrate, 30 min) was 92.6% and the “% of P + 1” value (HIV-1 RT [2]; 50 μM substrate, 60 min) was 94.6%. The “% of P + 1” value (HIV-1 RT [2]; 50 μM substrate, 120 min) was 95.9%, the “% of P + 1” value (HIV-1 RT [2]; 100 μM substrate, 10 min) was 94.8% and the “% of P + 1” value (HIV-1 RT [2]; 100 μM substrate, 20 min) was 97.7%. The “% of P + 1” value (HIV-1 RT [2]; 100 μM substrate, 30 min) was 97.6%, the “% of P + 1” value (HIV-1 RT [2]; 100 μM substrate, 60 min) was 97.9% and the “% of P + 1” value (HIV-1 RT [2]; 100 μM substrate, 120 min) was 97.5%. The “% of P + 1” value (HIV-1 RT [2]; 200 μM substrate, 10 min) was 91.7%, the “% of P + 2” value (HIV-1 RT [2]; 200 μM substrate, 10 min) was 3.0% and the “% of P + 1” value (HIV-1 RT [2]; 200 μM substrate, 20 min) was 93.8%. The “% of P + 2” value (HIV-1 RT [2]; 200 μM substrate, 20 min) was 3.4%, the “% of P + 1” value (HIV-1 RT [2]; 200 μM substrate, 30 min) was 93.7% and the “% of P + 2” value (HIV-1 RT [2]; 200 μM substrate, 30 min) was 3.6%. For the same compound, the “% of P + 1” value (HIV-1 RT [2]; 200 μM substrate, 60 min) was 93.0%, the “% of P + 2” value (HIV-1 RT [2]; 200 μM substrate, 60 min) was 4.3% and the “% of P + 1” value (HIV-1 RT [2]; 200 μM substrate, 120 min) was 94.2%. The “% of P + 2” value (HIV-1 RT [2]; 200 μM substrate, 120 min) was 3.6%, the “% of P + 1” value (HIV-1 RT [2]; 500 μM substrate, 10 min) was 88.8% and the “% of P + 2” value (HIV-1 RT [2]; 500 μM substrate, 10 min) was 7.5%. The “% of P + 1” value (HIV-1 RT [2]; 500 μM substrate, 20 min) was 88.4%, the “% of P + 2” value (HIV-1 RT [2]; 500 μM substrate, 20 min) was 9.6% and the “% of P + 1” value (HIV-1 RT [2]; 500 μM substrate, 30 min) was 86.9%. For the same compound, the “% of P + 2” value (HIV-1 RT [2]; 500 μM substrate, 30 min) was 11.1%, the “% of P + 1” value (HIV-1 RT [2]; 500 μM substrate, 60 min) was 87.0% and the “% of P + 2” value (HIV-1 RT [2]; 500 μM substrate, 60 min) was 11.2%. For the same compound, the “% of P + 1” value (HIV-1 RT [2]; 500 μM substrate, 120 min) was 87.0%, the “% of P + 2” value (HIV-1 RT [2]; 500 μM substrate, 120 min) was 11.5% and the “% of P + 1” value (HIV-1 RT [2]; 1 mM substrate, 10 min) was 80.6%. For the same compound, the “% of P + 2” value (HIV-1 RT [2]; 1 mM substrate, 10 min) was 16.7%, the “% of P + 1” value (HIV-1 RT [2]; 1 mM substrate, 20 min) was 73.7% and the “% of P + 2” value (HIV-1 RT [2]; 1 mM substrate, 20 min) was 23.7%. The “% of P + 1” value (HIV-1 RT [2]; 1 mM substrate, 30 min) was 75.9%, the “% of P + 2” value (HIV-1 RT [2]; 1 mM substrate, 30 min) was 22.1% and the “% of P + 1” value (HIV-1 RT [2]; 1 mM substrate, 60 min) was 76.3%. For the same compound, the “% of P + 2” value (HIV-1 RT [2]; 1 mM substrate, 60 min) was 21.9%, the “% of P + 1” value (HIV-1 RT [2]; 1 mM substrate, 120 min) was 76.4% and the “% of P + 2” value (HIV-1 RT [2]; 1 mM substrate, 120 min) was 21.7%. The “fold more efficient incorporation compared with L-Cys-dAMP (2)” value (HIV-1 RT [2]; HIV-1 RT single nucleotide incorporation) was 10.7 fold, the “Incorporation (conversion to a P+1 strand)” value (HIV-1 RT [3]; 10 μM substrate) was 27.1% and the “% of P + 1” value (HIV-1 RT [3]; 50 μM substrate, 10 min, P1T1 125 nM) was 84.5%. The “substrate quality for HIV-1 RT (in words)” value (HIV-1 RT [3]; among phosphoramidate analogues 1-5) was “best incorporation efficiency”, the “incorporation and primer extension by Taq DNA polymerase (in words)” value (Taq DNA polymerase) was “less active than HIV-1 RT” and the “Km fold higher than the natural substrate dATP” value (HIV-1 RT [4]) was 15 fold. The “Vmax fold lower than dATP” value (HIV-1 RT [4]) was 1.7 fold, the Km (HIV-1 RT [4]; [5]) was 14.3 ± 3.78 µM and the Vmax (HIV-1 RT [4]; [5]) was 19.21 ± 1.58 nM/min.
